Reference: patent publication US20250090596A1, “MODULATING INFLAMMATION ASSOCIATED WITH FOREIGN BODY RESPONSE” (CRISPR Therapeutics AG, priority 2023, published 2025)
“And” between values parts separate entries of the source, which are not always exact repeats. Equal values may be shown once.

Experiments:
[1] = tested on: PEC-211 cells; assay: In vitro differentiation of PEC-211 to stage 6 in presence of Tacrolimus, flow cytometry; type: cell-based, human; settings: 0.1 μM, 10 days
Experimental: Evaluation of the PEC-211 cells in the presence of Tacrolimus was performed in vitro. Stage 4 Pancreatic progenitor PEC-211 cells were further differentiated to stage 6 to produce matured islet like cell population in presence of 0.1 μM of Tacrolimus for 10 days. Control PEC-211 cells were not treated with Tacrolimus.

[2] = tested on: VCTX211 implants; assay: GSIS test of VCTX211 implants under calcineurin inhibitor chow; type: in vivo, Rat (Rattus norvegicus);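 also: athymic nude rats each carrying two subcutaneous VCTX211-loaded perforated delivery devices, fed calcineurin inhibitor or control chow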
From the text: Provided in this Example are in vivo efficacy evaluations of VCTX211 combination products (e.g., genetically modified cells loaded into a perforated delivery device) to assess potential sensitivity of exposure to calcineurin inhibitors. In this study, athymic nude rats each received two implants of compositions comprising genetically modified cells disclosed herein (e.g., VCTX211) each.
VCTX211 test articles (e.g., perforated delivery devices loaded with genetically modified cells disclosed herein) were first generated with pancreatic endoderm cell (PEC-211; e.g., comprising B2M KO and KI of TNFAIP3 and PD-L1; and KO of TXNIP and KI of MANF and HLA-E) aggregates derived from VCTX211 stem cell progenitor cells. To do so, the thaw and culture of PEC-211 aggregates was first performed in roller bottles. On the third day post-thaw, 20 μL aliquots of settled pellet volume (approximately 9×10^6 cells) were prepared and loaded into sterilized PD20 devices (e.g., perforated cell delivery device) to produce VCTX test articles. […] After formulation, test articles were maintained at room temperature in 10 mL storage tubes with media for 2 days.
Prior to implant, 30 male athymic nude rats (described in Table 19) were randomly assigned to three groups of ten animals each, and unbiased weight distribution was confirmed. […] At implant, each animal was surgically implanted subcutaneously with two VCTX test articles. The animals then continued to receive their respective chow. […] At 12 weeks, all animals were switched to standard rodent chow (Teklad 2920X, Envigo).

[3] = type: in vivo, Rat (Rattus norvegicus)
From the text: Prior to implant, 30 male athymic nude rats (described in Table 19) were randomly assigned to three groups of ten animals each, and unbiased weight distribution was confirmed. […] At implant, each animal was surgically implanted subcutaneously with two VCTX test articles. The animals then continued to receive their respective chow. Group 1 and 3 animals received their respective chow for 12 weeks, while Group 2 animals only tolerated the tacrolimus-containing chow for 3 weeks. […] At 12 weeks, all animals were switched to standard rodent chow (Teklad 2920X, Envigo).

[4] = tested on: athymic rats; settings: rat, in vivo
From the text: (§1) The administration of the calcineurin inhibitors was achieved through formulation into the chow fed to the animals (athymic rats).

[5] = tested on: athymic rats; assay: Previous in vivo sensitivity studies of a similar combination product with unmodified cells; settings: unmodified-cell combination product, drug in chow
From the text: as §1

[6] = individual animals, serum, 90 min after glucose
[7] = individual animals, serum, fasted

C=CC[C@@H]1/C=C(\C)C[C@H](C)C[C@H](OC)[C@H]2O[C@@](O)(C(=O)C(=O)N3CCCC[C@H]3C(=O)O[C@H](/C(C)=C/[C@@H]3CC[C@@H](O)[C@H](OC)C3)[C@H](C)[C@@H](O)CC1=O)[C@H](C)C[C@@H]2OC [TAC, tacrolimus]
effect on in vitro differentiation to islet cells [1]: did not affect | CHGA-NKX6.1+ PDX1+ or- (Pancreatic Progenitor) ([1]; Stage 6 cells, flow cytometry): 16.9 | Total CHGA+ ([1]; Stage 6 cells, flow cytometry): 76.3 | Total GCG+ ([1]; Stage 6 cells, flow cytometry): 36.6 | Total INS+ ([1]; Stage 6 cells, flow cytometry): 70.4 | Total NKX6.1+ ([1]; Stage 6 cells, flow cytometry): 48.7 | functional development of VCTX211 grafts, evaluated with GSIS tests, compared to control animals ([2]; cyclosporine A 12 weeks, tacrolimus 3 weeks): not affected | C-peptide, 16 Weeks, 60 min ([2]; individual animals, serum, 60 min after glucose): 1131 pM and 1798 pM and 720 pM and 1365 pM and 3073 pM and 700 pM | C-peptide, 12 Weeks, 90 min [2, 6]: 1933 pM and 1504 pM and 627 pM and 428 pM and 1178 pM and 1271 pM | C-peptide, 16 Weeks, 90 min [2, 6]: 1312 pM and 1545 pM and 1271 pM and 1207 pM and 1782 pM and 1140 pM | C-peptide, 12 Weeks, Fast [2, 7]: 113 pM and 123 pM and 119 pM and 107 pM and 147 pM and 109 pM | C-peptide, 16 Weeks, Fast [2, 7]: 282 pM and 253 pM and 273 pM and 227 pM and 302 pM and 219 pM | animals died or euthanized in extremis ([3]; by 3 weeks, group of 10): 3 animals | average loss of body weight ([3]; rat, in vivo): 8% | dose-limiting finding preventing increased exposure [4]: toxicity resulting in inappetence and severe weight loss | exposure levels versus target levels for prophylactic use in clinical organ transplantation [4]: below target levels | effect on development or function of beta cells derived from the implants [5]: did not appear to affect
